EP0037781A1, “Phenyl alcoxy propanol amines, their preparation and their use as medicines” (PIERRE FABRE S.A., priority 1980, dated 1981)
In brackets after ≈: the same amount, converted by molar mass. Counter-ions that a name gives are not always drawn.

Experiment: Solubility (Solubilités) in water and dimethyl sulfoxide
Type: physicochemical
Details: for solubility in dimethyl sulfoxide: diméthylsulfoxyde; for solubility: water, eau, read-out: Solubilités : Soluble dans l'eau

| Compound | solubility in dimethyl sulfoxide [%] | solubility [mg/mL] |
| --- | --- | --- |
| COc1cccc(COCC(O)CNC(C)(C)C)c1 (stereo not shown) [Exemple 5, tertiobutylamino-3 (métaméthoxybenzyloxy)-1 propanol-2 maléate] | 12 | 100 (≈ 374 mM) |
| Cc1cccc(COCC(O)CNC(C)C)c1 (stereo not shown) [Exemple 1, isopropylamino-3, m-tolyl méthoxy-1 propanol-2 fumarate] | 15 | 100 |
| COc1ccccc1COCC(O)CNC(C)C (stereo not shown) [Exemple 3, isopropylamino-3 (orthométhoxy benzyloxy) 1 propanol-2 fumarate] | 15 | 100 |
| CC(C)(C)NCC(O)COC1CCCc2ccccc21 (stereo not shown) [Exemple 16, tertiobutylamino-3 (tétrahydro 1,2,3,4 naphtoxy-1)-1 pro^panol-2 maléate] | – | 20 (≈ 72.1 mM) |
| Cc1cccc(COCC(O)CNC(C)(C)C)c1 (stereo not shown) [Exemple 2, tertiobutvlamino-3 métatol lméthoxy-1 propanol-2 maléate] | 10 | 25 (≈ 99.5 mM) |
| COc1ccccc1COCC(O)CNC(C)(C)C (stereo not shown) [Exemple 4, tertiobutylamino-3 (orthométhoxy benzyloxy)-1 propanol-2 maléate] | 15 | 100 (≈ 374 mM) |

Results, then the compound that gave them:

| solubility in dimethyl sulfoxide [%] | solubility [mg/mL] | Compound |
| --- | --- | --- |
| 8 | 14 | CC(C)NCC(O)COCc1cccc2ccccc12 (stereo not drawn) [Exemple 8, isopropylamino-3 (alpha-naphtyl méthoxy)-1 propanol-2 fumarate] |
| 10 | 100 (≈ 380 mM) | CC(C)(C)NCC(O)COC1Cc2ccccc2C1 (stereo not shown) [Exemple 14, tertiobutylamino-3 (indanyl-2 oxy)-1 propanol-2 maléate] |
| 15 | 10 (≈ 38 mM) | CC(C)(C)NCC(O)COC/C=C/c1ccccc1 (stereo not shown) [Exemple 12, tertiobutylamino-3 (phényl-3 propène-2 yl-1) oxy-1 ^propanol-2 maléate] |
| 15 | 100 | CC(C)(C)NCC(O)COCCCc1ccccc1 (stereo not shown) [Exemple 11, tertiobutylamino-3 phényl-3 propoxy)-1 propanol-2 fumarate] |
| 20 | 2 (≈ 5.82 mM) | CC(C)(C)NCC(O)COCc1cccc(OCc2ccccc2)c1 (stereo not shown) [Exemple 7, tertiobutylamino-3 métabenzyloxy-benzyloxy-1 propanol-2 maléate] |
| 12 | 100 | CC(C)NCC(O)COCCCc1ccccc1 (stereo not shown) [Exemple 10, isopropylamino-3(phényl-3 propoxy)-1 pro^panol-2 fumarate] |
| – | 30 | CC(C)NCC(O)COC1CCCc2ccccc21 (stereo not shown) [Exemple 15, isopropylamino-3 (tétrahydro 1,2,3,4 naphtyloxy-1)-1 propanol-2 fumarate] |
| 15 | 100 | CC(C)(C)NCC(O)COCc1cccc2ccccc12 (stereo not drawn) [Exemple 9, tertiobutylamino-3 (alpha-naphtyl méthoxy)-1 propanol-2 fumarate] |
| 20 | 100 (≈ 374 mM) | COc1ccc(COCC(O)CNC(C)(C)C)cc1 (stereo not shown) [Exemple 6, tertiobutylamino-3 (paraméthoxy benzyloxy)-1 propanol-2 maléate] |
